1 compound from BindingDB's records for patent US9427428 (Janssen Ireland, 2016) can be followed below.

The target of the experiment is T1, Genome polyprotein [810-3010] (Hepatitis C virus genotype 1b (isolate Con1), UniProt Q9WMX2).
T1 construct: 810-3010
Briefly: Stable Replicon Assay. From the text: The assay utilized the stably transfected cell line Huh-7 luc/neo (hereafter referred to as Huh-Luc). This cell line harbors an RNA encoding a bicistronic expression construct comprising the wild type NS3-NS5B regions of HCV type 1b translated from an Internal Ribosome Entry Site (IRES) from encephalomyocarditis virus (EMCV), preceded by a reporter portion (FfL-luciferase), and a selectable marker portion (neoR, neomycine phosphotransferase). The construct is flanked by 5' and 3' NTRs (non-translated regions) from HCV type 1b. Continued culture of the replicon cells in the presence of G418 (neoR) is dependent on the replication of the HCV RNA. The stably transfected replicon cells that replicate HCV RNA autonomously and to high levels, encoding inter alia luciferase, were used for screening the antiviral compounds. The replicon cells were plated in 384 well plates in the presence of the test and control compounds which were added in various concentrations. Following an incubation of three days, HCV replication was measured by assaying luciferase activity (using standard luciferase assay substrates and reagents and a Perkin Elmer ViewLux™ ultraHTS microplate imager). […] The inhibitory activity of the compound was monitored on the Huh-Luc cells, enabling a dose-response curve for each test compound.
For orientation: In antiviral work, replicon cells carry a viral genome segment that copies itself.

T1 sequence (Q9WMX2 810-3010): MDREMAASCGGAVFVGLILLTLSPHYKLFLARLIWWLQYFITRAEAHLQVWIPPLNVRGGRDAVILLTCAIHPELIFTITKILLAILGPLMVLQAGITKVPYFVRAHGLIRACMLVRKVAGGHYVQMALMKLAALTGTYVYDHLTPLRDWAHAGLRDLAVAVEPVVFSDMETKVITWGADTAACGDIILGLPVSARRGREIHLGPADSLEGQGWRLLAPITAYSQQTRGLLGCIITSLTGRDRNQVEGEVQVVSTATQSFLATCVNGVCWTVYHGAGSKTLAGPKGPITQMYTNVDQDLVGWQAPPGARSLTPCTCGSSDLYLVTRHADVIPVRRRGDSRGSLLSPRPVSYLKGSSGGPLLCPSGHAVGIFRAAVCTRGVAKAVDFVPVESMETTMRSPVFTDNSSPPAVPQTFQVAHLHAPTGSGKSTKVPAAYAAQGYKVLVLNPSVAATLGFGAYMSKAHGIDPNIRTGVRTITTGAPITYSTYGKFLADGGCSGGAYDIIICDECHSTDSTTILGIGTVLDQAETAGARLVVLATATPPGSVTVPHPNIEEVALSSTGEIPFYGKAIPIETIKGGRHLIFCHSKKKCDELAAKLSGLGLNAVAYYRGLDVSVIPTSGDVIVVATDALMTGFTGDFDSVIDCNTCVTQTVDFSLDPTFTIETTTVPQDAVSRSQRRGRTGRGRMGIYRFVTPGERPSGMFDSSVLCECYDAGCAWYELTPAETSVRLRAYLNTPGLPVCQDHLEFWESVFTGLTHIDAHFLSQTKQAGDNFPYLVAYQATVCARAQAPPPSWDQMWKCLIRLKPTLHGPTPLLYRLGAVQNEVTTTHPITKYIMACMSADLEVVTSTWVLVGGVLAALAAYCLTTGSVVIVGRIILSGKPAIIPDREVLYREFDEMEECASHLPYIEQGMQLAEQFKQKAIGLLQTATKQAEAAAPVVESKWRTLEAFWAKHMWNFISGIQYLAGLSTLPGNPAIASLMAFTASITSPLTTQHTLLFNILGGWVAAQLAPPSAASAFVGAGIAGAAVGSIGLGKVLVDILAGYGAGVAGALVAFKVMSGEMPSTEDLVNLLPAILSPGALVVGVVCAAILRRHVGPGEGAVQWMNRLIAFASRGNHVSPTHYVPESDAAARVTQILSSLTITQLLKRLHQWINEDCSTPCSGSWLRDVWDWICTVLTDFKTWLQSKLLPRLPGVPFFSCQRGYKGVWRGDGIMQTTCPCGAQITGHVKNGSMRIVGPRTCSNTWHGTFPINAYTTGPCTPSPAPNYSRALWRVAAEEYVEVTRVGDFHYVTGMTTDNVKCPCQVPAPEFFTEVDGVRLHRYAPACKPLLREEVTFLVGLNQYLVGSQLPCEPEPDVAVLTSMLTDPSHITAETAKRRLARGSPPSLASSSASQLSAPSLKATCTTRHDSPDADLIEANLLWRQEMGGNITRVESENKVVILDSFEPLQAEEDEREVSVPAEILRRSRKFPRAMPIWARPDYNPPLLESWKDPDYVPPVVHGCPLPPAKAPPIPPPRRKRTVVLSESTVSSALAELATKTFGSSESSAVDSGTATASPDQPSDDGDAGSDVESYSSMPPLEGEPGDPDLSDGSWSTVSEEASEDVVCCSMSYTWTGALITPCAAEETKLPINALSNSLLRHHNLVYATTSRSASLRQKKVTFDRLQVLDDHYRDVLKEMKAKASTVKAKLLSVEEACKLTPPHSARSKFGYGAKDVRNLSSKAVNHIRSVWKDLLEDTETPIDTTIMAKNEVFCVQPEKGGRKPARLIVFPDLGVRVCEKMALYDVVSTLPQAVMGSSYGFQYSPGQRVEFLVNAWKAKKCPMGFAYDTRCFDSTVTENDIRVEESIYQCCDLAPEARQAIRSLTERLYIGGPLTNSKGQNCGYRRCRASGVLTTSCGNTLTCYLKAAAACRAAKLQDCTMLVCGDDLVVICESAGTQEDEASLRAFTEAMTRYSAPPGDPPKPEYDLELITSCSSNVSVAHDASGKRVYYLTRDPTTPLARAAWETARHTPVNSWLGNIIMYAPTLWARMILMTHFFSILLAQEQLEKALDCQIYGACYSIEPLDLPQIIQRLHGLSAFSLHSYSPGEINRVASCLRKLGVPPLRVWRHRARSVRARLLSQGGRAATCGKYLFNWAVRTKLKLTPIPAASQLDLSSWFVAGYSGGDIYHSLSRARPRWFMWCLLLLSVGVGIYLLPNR

Usually EC50 stands for the concentration giving half of the maximal effect. Consider `CC[C@H](C)[C@H](NC(=O)OC)C(=O)N1CCC[C@H]1c1ncc(-c2ccc3cc(-c4ccc5[nH]c([C@@H]6CCCN6C(=O)[C@@H](NC(=O)OC)[C@@H](C)OC)nc5c4)ccc3c2)[nH]1` [US9427428, 21], for which the response was half-maximal at 2.2 nM (EC50).
